{
  "source": "ChEMBL document CHEMBL5465560",
  "about": "“Selectivity Literature for EUbOPEN Chemogenomic Library” (2024)",
  "key": {"[1]": {"target": "Tyrosine-protein kinase ABL2 (Homo sapiens, UniProt P42684)", "sequence (P42684 whole entry)": "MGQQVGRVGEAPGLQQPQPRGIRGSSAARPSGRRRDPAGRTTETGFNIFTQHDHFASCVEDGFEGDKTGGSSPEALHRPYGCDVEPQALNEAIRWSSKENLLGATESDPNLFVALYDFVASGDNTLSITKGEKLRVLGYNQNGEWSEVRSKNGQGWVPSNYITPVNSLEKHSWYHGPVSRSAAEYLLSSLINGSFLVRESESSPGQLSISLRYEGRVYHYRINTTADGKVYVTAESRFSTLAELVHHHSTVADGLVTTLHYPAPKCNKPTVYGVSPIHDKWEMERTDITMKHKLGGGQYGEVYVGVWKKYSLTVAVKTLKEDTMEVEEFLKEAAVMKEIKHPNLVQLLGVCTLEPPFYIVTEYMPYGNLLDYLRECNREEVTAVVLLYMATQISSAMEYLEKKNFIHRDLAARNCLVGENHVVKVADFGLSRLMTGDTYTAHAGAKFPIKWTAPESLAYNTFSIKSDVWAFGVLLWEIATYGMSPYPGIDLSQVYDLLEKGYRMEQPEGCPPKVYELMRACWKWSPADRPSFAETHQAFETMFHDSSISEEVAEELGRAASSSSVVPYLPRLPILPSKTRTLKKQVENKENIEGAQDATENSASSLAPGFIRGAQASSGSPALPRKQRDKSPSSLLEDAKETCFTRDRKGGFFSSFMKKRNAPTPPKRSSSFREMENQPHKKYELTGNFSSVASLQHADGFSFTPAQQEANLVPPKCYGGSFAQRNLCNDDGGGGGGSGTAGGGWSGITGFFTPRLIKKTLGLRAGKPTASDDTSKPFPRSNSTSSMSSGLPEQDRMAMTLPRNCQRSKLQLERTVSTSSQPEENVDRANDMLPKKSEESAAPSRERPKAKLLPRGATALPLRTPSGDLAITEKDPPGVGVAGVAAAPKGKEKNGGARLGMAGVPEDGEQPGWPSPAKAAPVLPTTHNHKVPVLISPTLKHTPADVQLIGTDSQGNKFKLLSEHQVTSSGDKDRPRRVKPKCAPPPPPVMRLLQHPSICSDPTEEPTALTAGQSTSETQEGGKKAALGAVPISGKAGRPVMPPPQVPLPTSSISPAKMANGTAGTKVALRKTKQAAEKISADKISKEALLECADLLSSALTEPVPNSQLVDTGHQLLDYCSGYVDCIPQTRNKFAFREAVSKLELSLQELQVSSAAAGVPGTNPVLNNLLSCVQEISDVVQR", "assay": "Selectivity interaction (ActivX KiNativ screen (kinase selectivity in THP-1 cell lysates)) EUB0000639a ABL2", "format": "subcellular", "conditions": "lysate, at 5 µM"}, "[2]": {"target": "Serine/threonine-protein kinase VRK2 (Homo sapiens) (UniProt Q86Y07)", "sequence (Q86Y07 whole entry)": "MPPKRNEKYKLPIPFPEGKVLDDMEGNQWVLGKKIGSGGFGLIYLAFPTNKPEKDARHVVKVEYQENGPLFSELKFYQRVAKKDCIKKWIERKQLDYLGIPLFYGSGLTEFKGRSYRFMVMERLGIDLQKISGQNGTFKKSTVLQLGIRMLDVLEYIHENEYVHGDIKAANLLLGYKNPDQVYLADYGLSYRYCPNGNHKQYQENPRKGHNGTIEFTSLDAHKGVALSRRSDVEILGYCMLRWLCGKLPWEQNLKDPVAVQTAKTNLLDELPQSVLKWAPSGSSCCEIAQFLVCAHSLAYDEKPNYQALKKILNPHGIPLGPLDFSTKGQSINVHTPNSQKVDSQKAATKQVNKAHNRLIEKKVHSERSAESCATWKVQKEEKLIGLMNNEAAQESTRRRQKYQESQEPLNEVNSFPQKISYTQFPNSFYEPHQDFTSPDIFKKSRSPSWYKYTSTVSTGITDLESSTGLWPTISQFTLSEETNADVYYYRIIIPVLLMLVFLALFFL", "assay": "Selectivity interaction (ActivX KiNativ screen (kinase selectivity in THP-1 cell lysates)) EUB0000639a VRK2", "format": "subcellular", "conditions": "lysate"}, "[3]": {"target": "T1, Cyclin-dependent kinase 11A (Homo sapiens) (UniProt Q9UQ88)", "T1 sequence (whole entry)": "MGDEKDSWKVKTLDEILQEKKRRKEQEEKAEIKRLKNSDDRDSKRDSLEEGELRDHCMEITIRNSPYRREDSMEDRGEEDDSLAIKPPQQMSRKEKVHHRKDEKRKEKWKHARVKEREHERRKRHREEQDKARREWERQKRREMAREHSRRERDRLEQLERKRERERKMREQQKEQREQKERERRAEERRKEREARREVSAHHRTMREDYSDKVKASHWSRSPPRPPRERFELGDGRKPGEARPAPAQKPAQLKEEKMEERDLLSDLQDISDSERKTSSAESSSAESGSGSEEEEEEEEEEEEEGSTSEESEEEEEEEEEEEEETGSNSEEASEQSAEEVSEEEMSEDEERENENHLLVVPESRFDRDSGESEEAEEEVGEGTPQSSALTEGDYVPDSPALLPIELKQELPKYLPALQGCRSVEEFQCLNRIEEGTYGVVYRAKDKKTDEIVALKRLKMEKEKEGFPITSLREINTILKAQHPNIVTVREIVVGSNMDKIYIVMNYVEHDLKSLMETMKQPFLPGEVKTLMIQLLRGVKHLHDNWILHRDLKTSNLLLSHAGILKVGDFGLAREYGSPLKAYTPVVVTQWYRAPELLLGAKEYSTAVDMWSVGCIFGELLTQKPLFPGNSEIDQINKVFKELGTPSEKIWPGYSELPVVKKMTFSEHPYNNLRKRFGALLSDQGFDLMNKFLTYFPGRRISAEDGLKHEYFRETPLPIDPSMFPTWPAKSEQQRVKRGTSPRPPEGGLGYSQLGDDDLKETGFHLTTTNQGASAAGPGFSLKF", "assay": "Selectivity interaction (ActivX KiNativ screen (kinase selectivity in THP-1 cell lysates)) EUB0000639a CDK11A", "format": "subcellular", "conditions": "lysate, at 0.01 µM"}, "[4]": {"target": "T2, Dual specificity mitogen-activated protein kinase kinase 7 (Homo sapiens) (UniProt O14733)", "T2 sequence (whole entry)": "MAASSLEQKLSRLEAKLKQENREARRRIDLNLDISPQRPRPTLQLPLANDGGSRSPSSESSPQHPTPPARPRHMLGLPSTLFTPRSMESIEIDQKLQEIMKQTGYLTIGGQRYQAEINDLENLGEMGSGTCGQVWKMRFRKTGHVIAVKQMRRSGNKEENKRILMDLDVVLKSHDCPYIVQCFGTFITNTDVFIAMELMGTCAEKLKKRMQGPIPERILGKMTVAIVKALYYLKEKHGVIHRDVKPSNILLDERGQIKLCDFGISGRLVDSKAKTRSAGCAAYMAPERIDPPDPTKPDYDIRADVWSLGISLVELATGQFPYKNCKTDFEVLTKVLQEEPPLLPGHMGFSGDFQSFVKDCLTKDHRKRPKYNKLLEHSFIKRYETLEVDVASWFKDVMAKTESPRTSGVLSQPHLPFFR", "assay": "Selectivity interaction (KinomeScan (DiscoverX)) EUB0000595a MAP2K7", "conditions": "at 10 µM"}, "[5]": {"target": "T3, Mitogen-activated protein kinase kinase kinase 19 (Homo sapiens) (UniProt Q56UN5)", "T3 sequence (whole entry)": "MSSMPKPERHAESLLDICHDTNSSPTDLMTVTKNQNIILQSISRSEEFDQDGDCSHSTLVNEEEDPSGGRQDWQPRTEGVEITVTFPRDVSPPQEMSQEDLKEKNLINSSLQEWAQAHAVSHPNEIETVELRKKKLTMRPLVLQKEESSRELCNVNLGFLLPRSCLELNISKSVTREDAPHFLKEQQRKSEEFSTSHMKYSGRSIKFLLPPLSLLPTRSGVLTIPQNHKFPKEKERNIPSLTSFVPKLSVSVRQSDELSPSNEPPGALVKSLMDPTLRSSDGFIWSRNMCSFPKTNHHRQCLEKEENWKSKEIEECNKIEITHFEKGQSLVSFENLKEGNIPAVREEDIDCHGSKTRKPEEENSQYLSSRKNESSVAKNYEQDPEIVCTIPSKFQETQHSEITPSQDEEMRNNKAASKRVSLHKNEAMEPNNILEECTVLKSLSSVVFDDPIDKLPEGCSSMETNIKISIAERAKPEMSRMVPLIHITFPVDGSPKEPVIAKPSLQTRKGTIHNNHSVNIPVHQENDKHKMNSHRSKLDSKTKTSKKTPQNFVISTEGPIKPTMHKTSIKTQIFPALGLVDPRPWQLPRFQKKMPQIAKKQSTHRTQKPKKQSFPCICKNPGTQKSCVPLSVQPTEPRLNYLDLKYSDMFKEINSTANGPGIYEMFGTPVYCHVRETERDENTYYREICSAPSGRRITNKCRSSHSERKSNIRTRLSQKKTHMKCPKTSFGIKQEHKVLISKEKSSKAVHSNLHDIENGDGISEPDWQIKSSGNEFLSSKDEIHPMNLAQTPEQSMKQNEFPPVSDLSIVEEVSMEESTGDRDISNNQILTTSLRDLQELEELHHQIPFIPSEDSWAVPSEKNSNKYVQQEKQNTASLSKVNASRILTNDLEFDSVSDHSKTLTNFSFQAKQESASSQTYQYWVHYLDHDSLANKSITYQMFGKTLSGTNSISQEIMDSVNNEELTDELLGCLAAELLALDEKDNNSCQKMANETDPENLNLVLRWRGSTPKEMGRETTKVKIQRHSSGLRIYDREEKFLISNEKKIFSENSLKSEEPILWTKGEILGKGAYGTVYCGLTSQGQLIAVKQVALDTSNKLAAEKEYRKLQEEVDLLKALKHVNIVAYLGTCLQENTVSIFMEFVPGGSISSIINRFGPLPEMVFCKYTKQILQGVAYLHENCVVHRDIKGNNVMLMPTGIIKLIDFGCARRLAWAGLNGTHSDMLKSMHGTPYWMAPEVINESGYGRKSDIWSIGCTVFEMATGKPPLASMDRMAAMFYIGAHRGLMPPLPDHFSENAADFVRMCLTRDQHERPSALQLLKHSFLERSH", "assay": "Selectivity interaction (KinomeScan (DiscoverX)) EUB0000618a MAP3K19", "conditions": "at 10 µM"}},
  "data": [
    {"smiles": "CC[C@@H]1[C@H](F)C(=O)N[C@@H]1COc1nccc2cc(C(N)=O)c(OC)cc12", "note": "[ZIMLOVISERTIB]", "values": [
      {"measurement": "% of inhibition", "setting": "[1]", "result": 30.7, "unit": "%"},
      {"measurement": "% of inhibition", "setting": "[2]; at 0.01 µM", "result": -16.6, "unit": "%"},
      {"measurement": "% of inhibition", "setting": "[2]; at 0.04 µM", "result": -6, "unit": "%"},
      {"measurement": "% of inhibition", "setting": "[2]; at 0.2 µM", "result": -28.4, "unit": "%"},
      {"measurement": "% of inhibition", "setting": "[2]; at 1 µM", "result": -14.8, "unit": "%"},
      {"measurement": "% of inhibition", "setting": "[2]; at 5 µM", "result": 8.1, "unit": "%"},
      {"measurement": "% of inhibition", "setting": "[3]", "result": 11.4, "unit": "%"}
    ]},
    {"smiles": "COCC(=O)NC/C=C/c1ccc2ncnc(Nc3ccc(Oc4ccc(C)nc4)c(C)c3)c2c1", "note": "[CP-724714]", "values": [
      {"measurement": "% of control", "setting": "[4]", "result": 100, "unit": "%"}
    ]},
    {"smiles": "O[C@H]1CC[C@H](Nc2ncc3nc(Nc4c(F)cc(F)cc4F)n([C@H]4CCOC4)c3n2)CC1", "values": [
      {"measurement": "% of control", "setting": "[5]", "result": 47, "unit": "%"}
    ]}
  ]
}
